Laboratory results: US5807825A, “Platelet aggregation inhibitors” (COR Therapeutics, Inc., priority 1995, dated 1998)
Where a SMILES comes first, the peptide text is derived from it. Bridges are numbered along the chain shown (N, C = ends).

Experiments:
[1] = molecular target: T1, GP IIb-IIIa (Homo sapiens, UniProt P05106+P08514); assay: plate assay: binding of labeled ligand (fibrinogen, vWF) to immobilized purified GP IIb-IIIa; details: plate assays, in words; FIGS. 2A-2C, 30A-30E
T1 construct: Purified platelet GP IIb-IIIa receptor was prepared as described by Fitzgerald, L. A., et al; from tissue; host or cells: platelets
Experimental: In the assay, GP IIb-IIIa, prepared in purified form, for example as described by Fitzgerald, L. A., et al., Anal Biochem (1985) 151:169-177, incorporated herein by reference, is coated onto a solid support such as beads, test tubes, or microtiter plates. […] Fibrinogen is typically provided at a concentration of about 5-50 nM and the test material can, if desired, be added at a series of dilutions. Typical incubations are 2-4 hr at 35° C., the time and temperature being interdependent.
After incubation, the solution containing the fibrinogen and test material is removed and the level of binding of fibrinogen measured by quantitating bound fibrinogen to GP IIb-IIIa. Any suitable means of detection may be used, but it is convenient to employ labeled fibrinogen, for example using radioactive, fluorescent or biotinylated labels. Such methods are well known and need not be elaborated here.
In this case, percent inhibition may be calculated using the amount of Fg bound in the control as representing the basis, so that [formula] Other measures of inhibition effectiveness, such as IC50, may also be used.
Purified platelet GP IIb-IIIa receptor was prepared as described by Fitzgerald, L. A., et al., Anal Biochem (1985) 151:169-177. […] After purification, the receptors were stored in 0.1% Triton X-100 at 0.1-1.0 mg/ml. […]
The labeled ligands were added to the receptor-coated wells at final concentration of 10 nM (100 ul/well) and incubated for 3 h at 30° C. in the presence or absence of the test samples. After incubation, the wells are aspirated to dryness and bound ligand is quantitated.
For ^125 I-labeled ligands, the protein is solubilized with 250 ul SDS. For biotinylated ligands, the bound protein is detected by the addition of antibiotin antibody conjugated to alkaline phosphatase followed by addition of substrate (p-nitrophenyl phosphate), and determination of the optical density of each well at 405 nm. […]

[2] = test system: M21 melanoma cells; assay: attachment of 35S-methionine labelled M21 melanoma cells to vitronectrin-coated plates; format: cell-based; details: FIGS. 31-34
Experimental: M21 melanoma cells, which express high levels of the vitronectrin receptor, were metabolically labelled with ^35 S-methionine, and then added to 24-well tissue culture plates coated with vitronectrin. An incubation period of 1 hr at 37° C. was allowed for cell attachment, and this was followed by a wash to remove non-adherent cells. After washing, the adherent cells were solubilized, and the supernatants placed in a liquid scintillation counter. The fraction of cells remaining adherent was calculated by dividing the cpm in the solubilized supernatants by the cpm in the total number of cells added to each well. The effects of purified snake venom peptides and synthetic cyclic peptides on cell adhesion was determined by including them with the M21 cells during the incubation period.
M21 melanoma cells were labelled with ^35 S-methionine, and then added to vitronectrin-coated plates in the presence of the indicated concentrations of purified snake venom peptides. Cell attachment was measured by solubilizing the cells remaining after an incubation and wash, as described in Section C, on page 40.

[3] = molecular target: T2, vitronectrin receptor (Homo sapiens, UniProt P05106+P06756); assay: plate assay: binding of labeled ligand (vitronectrin, vWF) to immobilized vitronectrin receptor; details: FIGS. 26-28
T2 construct: Vitronectrin receptor was prepared as described by Smith, J. W., J Biol Chem (1988) 263:18726-18731; from tissue

[4] = test system: thrombi formation in dog coronary arteries; assay: Folts model of thrombosis, cyclic flow reductions (CFRs) in open chest dog coronary artery; format: in vivo
Experimental: A. Initiation of cyclic flow reductions (CFRs) in open chest dog. An occluder placed on the left anterior descending (LAD) coronary artery of a 20 kg dog, as previously described was performed.

[5] = molecular target: T2, vitronectrin receptor; details: background art; compared with same peptide before cyclization; cited from earlier work
[6] = molecular target: fibronectin receptor (Homo sapiens, UniProt P05556+P08648); details: background art; cited from earlier work
Chain of fibronectin receptor (P08648 42-894 limits assumed): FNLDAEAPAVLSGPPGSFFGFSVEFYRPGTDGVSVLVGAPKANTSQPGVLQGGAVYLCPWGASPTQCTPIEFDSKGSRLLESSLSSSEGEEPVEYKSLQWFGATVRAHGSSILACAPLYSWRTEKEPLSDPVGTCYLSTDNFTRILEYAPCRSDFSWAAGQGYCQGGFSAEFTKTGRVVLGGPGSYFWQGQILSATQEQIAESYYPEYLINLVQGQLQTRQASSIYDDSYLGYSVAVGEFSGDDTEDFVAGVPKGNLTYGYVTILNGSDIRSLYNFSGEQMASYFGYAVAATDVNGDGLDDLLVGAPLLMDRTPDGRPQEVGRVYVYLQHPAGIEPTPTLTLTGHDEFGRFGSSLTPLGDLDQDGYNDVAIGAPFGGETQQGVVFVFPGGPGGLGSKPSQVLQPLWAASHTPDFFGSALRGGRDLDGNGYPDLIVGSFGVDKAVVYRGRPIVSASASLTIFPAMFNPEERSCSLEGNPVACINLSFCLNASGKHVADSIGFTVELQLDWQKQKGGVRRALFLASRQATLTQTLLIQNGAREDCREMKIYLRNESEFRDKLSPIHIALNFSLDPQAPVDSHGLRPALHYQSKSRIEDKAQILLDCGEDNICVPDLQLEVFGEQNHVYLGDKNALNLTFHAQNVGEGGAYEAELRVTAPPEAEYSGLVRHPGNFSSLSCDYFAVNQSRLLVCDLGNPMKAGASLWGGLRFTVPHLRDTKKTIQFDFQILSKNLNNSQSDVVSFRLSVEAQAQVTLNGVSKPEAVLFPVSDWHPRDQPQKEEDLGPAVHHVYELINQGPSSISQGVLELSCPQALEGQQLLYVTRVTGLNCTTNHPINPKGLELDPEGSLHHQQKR
Chain of fibronectin receptor (P08648 895-1049 partner limits assumed): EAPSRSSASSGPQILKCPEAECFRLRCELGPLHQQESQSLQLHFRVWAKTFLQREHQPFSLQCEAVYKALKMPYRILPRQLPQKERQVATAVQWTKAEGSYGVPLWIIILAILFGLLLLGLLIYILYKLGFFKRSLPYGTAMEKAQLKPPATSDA
Chain of fibronectin receptor (P05556 21-798): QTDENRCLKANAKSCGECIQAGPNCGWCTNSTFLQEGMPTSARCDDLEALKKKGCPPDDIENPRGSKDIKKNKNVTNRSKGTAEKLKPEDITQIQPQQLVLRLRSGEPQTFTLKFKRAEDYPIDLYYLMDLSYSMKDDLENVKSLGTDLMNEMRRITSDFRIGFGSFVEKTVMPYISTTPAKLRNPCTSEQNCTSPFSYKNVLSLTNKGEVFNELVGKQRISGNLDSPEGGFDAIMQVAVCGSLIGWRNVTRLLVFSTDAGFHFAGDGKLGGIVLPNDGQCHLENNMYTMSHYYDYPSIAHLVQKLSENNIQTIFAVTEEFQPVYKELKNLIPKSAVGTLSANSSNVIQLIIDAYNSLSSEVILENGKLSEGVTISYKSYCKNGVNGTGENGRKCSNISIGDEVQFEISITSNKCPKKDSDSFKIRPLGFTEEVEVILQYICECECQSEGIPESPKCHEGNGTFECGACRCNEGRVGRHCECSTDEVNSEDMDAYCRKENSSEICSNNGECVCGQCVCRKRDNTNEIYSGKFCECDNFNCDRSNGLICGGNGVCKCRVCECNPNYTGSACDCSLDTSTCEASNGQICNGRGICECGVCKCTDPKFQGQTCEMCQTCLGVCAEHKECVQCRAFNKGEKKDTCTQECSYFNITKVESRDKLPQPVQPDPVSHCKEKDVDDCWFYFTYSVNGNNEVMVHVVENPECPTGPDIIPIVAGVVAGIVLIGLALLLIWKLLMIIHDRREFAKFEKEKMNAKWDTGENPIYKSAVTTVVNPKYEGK

T1 sequence (P08514 32-887 limits assumed): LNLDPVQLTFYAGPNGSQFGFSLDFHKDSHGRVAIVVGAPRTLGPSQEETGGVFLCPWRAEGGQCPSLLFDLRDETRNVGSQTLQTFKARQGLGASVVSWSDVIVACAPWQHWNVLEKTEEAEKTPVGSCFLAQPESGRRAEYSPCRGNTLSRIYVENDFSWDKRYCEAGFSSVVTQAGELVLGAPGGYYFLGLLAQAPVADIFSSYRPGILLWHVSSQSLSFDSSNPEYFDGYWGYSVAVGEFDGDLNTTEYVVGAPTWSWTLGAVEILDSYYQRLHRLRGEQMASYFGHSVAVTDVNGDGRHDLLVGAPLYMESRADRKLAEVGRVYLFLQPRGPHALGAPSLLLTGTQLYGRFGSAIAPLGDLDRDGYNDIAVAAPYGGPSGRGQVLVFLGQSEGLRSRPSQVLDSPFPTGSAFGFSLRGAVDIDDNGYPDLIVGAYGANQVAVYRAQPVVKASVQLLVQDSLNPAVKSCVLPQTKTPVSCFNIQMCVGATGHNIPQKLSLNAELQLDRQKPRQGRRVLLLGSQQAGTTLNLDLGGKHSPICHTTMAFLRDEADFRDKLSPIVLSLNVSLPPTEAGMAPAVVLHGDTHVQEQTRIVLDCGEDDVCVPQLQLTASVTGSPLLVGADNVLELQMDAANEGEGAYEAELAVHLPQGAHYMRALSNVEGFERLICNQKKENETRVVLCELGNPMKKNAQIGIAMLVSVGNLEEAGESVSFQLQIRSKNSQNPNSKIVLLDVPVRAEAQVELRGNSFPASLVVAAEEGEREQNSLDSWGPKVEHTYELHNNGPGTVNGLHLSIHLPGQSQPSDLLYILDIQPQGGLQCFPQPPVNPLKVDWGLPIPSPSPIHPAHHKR
T1 sequence (P08514 891-1039 partner limits assumed): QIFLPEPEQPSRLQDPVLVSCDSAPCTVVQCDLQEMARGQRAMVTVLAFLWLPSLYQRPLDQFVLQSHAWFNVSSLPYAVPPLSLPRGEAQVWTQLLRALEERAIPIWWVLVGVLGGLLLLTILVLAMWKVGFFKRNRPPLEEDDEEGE
T1 sequence (P05106 27-788): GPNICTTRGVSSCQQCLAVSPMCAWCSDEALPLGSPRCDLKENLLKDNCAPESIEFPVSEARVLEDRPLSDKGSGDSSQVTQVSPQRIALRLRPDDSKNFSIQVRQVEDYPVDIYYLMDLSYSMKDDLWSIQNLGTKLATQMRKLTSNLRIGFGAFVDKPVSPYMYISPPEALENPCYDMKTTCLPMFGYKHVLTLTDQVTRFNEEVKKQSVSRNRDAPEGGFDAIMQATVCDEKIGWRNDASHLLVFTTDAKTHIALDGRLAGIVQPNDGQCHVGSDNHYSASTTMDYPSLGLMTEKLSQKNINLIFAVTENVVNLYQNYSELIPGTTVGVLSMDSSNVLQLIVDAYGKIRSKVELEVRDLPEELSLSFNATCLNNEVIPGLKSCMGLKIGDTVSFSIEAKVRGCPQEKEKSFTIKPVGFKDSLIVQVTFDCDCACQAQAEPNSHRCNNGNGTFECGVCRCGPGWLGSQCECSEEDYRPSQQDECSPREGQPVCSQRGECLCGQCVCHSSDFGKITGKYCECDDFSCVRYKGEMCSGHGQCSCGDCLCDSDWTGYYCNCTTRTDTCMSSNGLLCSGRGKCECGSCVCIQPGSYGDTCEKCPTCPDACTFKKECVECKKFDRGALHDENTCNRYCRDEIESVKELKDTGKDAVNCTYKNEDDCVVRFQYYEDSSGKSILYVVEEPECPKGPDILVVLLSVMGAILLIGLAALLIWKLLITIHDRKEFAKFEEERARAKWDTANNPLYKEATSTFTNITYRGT
T2 sequence (P06756 31-889 limits assumed): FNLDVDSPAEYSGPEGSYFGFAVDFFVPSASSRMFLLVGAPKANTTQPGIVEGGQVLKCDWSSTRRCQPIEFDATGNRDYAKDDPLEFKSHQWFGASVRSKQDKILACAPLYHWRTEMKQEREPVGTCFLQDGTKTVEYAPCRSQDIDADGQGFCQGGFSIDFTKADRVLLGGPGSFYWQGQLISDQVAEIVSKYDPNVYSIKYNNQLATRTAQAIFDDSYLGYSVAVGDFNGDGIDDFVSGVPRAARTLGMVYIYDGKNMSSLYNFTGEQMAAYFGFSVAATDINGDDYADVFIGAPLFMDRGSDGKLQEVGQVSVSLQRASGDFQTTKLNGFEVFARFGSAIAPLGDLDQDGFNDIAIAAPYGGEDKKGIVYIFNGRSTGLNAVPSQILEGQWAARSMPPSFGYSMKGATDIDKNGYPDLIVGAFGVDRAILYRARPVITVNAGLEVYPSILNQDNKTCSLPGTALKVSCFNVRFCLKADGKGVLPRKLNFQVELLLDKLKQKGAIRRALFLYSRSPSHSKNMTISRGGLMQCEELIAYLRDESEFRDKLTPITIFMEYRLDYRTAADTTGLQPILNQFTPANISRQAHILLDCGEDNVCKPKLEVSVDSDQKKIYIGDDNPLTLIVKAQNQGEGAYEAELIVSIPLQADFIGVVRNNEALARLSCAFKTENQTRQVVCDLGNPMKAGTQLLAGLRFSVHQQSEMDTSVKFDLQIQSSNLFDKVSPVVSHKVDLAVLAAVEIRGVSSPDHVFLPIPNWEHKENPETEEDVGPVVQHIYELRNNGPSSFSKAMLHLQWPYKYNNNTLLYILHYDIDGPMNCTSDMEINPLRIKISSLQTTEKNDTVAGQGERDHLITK
T2 sequence (P06756 891-1048 partner limits assumed): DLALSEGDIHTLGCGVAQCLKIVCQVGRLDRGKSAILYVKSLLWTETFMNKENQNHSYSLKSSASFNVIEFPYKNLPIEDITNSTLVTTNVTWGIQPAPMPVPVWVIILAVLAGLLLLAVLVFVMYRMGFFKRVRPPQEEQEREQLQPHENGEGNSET
T2 sequence (P05106 27-788): as the sequence (P05106 27-788) above

Compound: C[C@H](NC(=O)[C@@H]1CSSC[C@H](NC(=O)CN)C(=O)N[C@@H](CCCCN)C(=O)NCC(=O)N[C@@H](CC(=O)O)C(=O)N[C@@H](Cc2c[nH]c3ccccc23)C(=O)N1)C(N)=O [#7] (H-GCKGDWCA-NH2; disulfide 2-7)
- specificity: inhibition of fibrinogen/GP IIb-IIIa binding compared with vitronectrin/vitronectrin receptor binding [1]: quite specific

Compound: N=C(N)NCCC[C@H](N)C(=O)NCC(=O)N[C@@H](CC(=O)O)C(=O)N[C@@H](CO)C(=O)O [RGDS, reference compound]
- effect on M21 cell adhesion/attachment to vitronectrin, in words [2]: potent inhibitors of cell attachment

Compound: EEPCATGPCCRRCKFKRAGKVCRVAKGDWNNDYCTGK- S-C-D-C-P-R-N-P-W-N-G (EEPCATGPCCRRCKFKRAGKVCRVAKGDWNNDYCTGKSCDCPRNPWNG) [Analog #2]
- inhibition of vitronectrin binding to vitronectrin receptor, in words [3]: inability to inhibit the binding of vitronectrin to the vitronectrin receptor

Compound: C[C@H](NC(=O)[C@@H]1CSSC[C@H](NC(=O)CN)C(=O)NCC(=O)N[C@@H](CCCCN)C(=O)NCC(=O)N[C@@H](CC(=O)O)C(=O)N[C@@H](Cc2c[nH]c3ccccc23)C(=O)N2CCC[C@H]2C(=O)N1)C(N)=O [Analog #3, G-C-G-K-G-D-W-P-C-A-NH2]
- effect on M21 cell adhesion/attachment to vitronectrin, in words [2]: ineffective up to 60 uM

Compound: C[C@H](NC(=O)[C@@H]1CSSC[C@H](NC(=O)CN)C(=O)NCC(=O)N[C@@H](CCCCN)C(=O)NCC(=O)N[C@@H](CC(=O)O)C(=O)N[C@@H](Cc2c[nH]c3ccccc23)C(=O)N2CCC[C@H]2C(=O)N1)C(N)=O [#3]
- effect on cyclic flow reductions (CFRs) in LAD coronary artery ([4]; 10 mg into a peripheral vein, 20 kg open chest dog, FIG. 36): partial ablation of the CFRs
- effect on cyclic flow reductions (CFRs) in LAD coronary artery ([4]; second infusion of 40 mg into a peripheral vein, FIG. 37): complete ablation of the CFRs

Compound: C[C@H](NC(=O)[C@@H]1CSSC[C@H](NC(=O)CN)C(=O)N[C@@H](CCCCN)C(=O)NCC(=O)N[C@@H](CC(=O)O)C(=O)N[C@@H](Cc2c[nH]c3ccccc23)C(=O)N2CCC[C@H]2C(=O)N1)C(N)=O [#4] (H-GCKGDWPCA-NH2; disulfide 2-8)
- specificity: inhibition of fibrinogen/GP IIb-IIIa binding compared with vitronectrin/vitronectrin receptor binding [1]: highest differential

Compound: ECADGLCCDQCRFLKKGTVCRVAKGDWNDDTCTGQSC- D-C-P-R-N-G-L-Y-G (ECADGLCCDQCRFLKKGTVCRVAKGDWNDDTCTGQSCDCPRNGLYG) [Analog #1]
- effect on M21 cell adhesion/attachment to vitronectrin, in words [2]: neither barbourin nor Peptide 1 (truncated barbourin) had a significant effect

Compound: C[C@H](NC(=O)[C@@H]1CSSC[C@H](NC(=O)CN)C(=O)NCC(=O)N[C@@H](CCCNC(=N)N)C(=O)NCC(=O)N[C@@H](CC(=O)O)C(=O)N[C@@H](Cc2c[nH]c3ccccc23)C(=O)N2CCC[C@H]2C(=O)N1)C(N)=O [reference compound] (H-GCGRGDWPCA-NH2; disulfide 2-9)
- effect on M21 cell adhesion/attachment to vitronectrin, in words [2]: potent inhibitors of cell attachment

Compound: Gly-Pen-Gly-Arg-Gly-Asp-Ser-Pro-Cys-Ala (GRGDSPCA; N-terminal Gly-Pen; Pen-Cys disulfide cyclisation; printed: Gly-Arg-Gly-Asp-Ser-Pro-Cys-Ala) [cyclic peptide, disulfide bridge between Pen and Cys (Pierschbacher)]
- inhibition of vitronectrin binding, in words [5]: able to inhibit vitronectrin binding more strongly than the same peptide before cyclization
- inhibition of fibronectin binding, in words [6]: ineffective in inhibiting fibronectin binding

Compound: NCCCC[C@@H]1NC(=O)CNC(=O)[C@@H](N)CSSC[C@@H](C(N)=O)NC(=O)[C@@H]2CCCN2C(=O)[C@H](Cc2c[nH]c3ccccc23)NC(=O)[C@H](CC(=O)O)NC(=O)CNC1=O [#5] (H-CGKGDWPC-NH2; disulfide 1-8)
- specificity: inhibition of fibrinogen/GP IIb-IIIa binding compared with vitronectrin/vitronectrin receptor binding [1]: quite specific
